Experimental data as given in patent US7396848B1, “Neurotrophin production/secretion promoting agent” (Takeda Pharmaceutical Company Limited, priority 2000, dated 2008).

What was measured:
NGF [1] = assay: NGF production/secretion promoting activity in cultured Schwann cells (enzyme immunoassay of culture fluid); format: cell-based, SD rats; settings: 24 hours, concentrations of 10^−4 M to 10^−8 M, result in words
Experimental: Schwann cells were prepared by subjecting the dorsal spinal root ganglion collected from 10 newborn SD rats to enzyme treatment using 0.25% trypsin containing 0.01% deoxyribonuclease (DNase, produced by Sigma), followed by cloning from the cell group obtained. […]
The culture fluid obtained in each run of Reference Example 1A was recovered and assayed for the neurotrophin content therein. […] After washing, 30 μl of 4-methylumbelliferyl-β-D-galactoside (produced by Sigma) (10 μg/μl) was added to the substrate, the reaction was allowed to proceed at room temperature for 4 hours and then terminated by addition of 130 μl of 0.1 M glycine-sodium hydroxide buffer (pH 10.3), and the fluorescent intensity of the 4-methylumbelliferone produced was determined (Ex: 360 nm; Em: 450 nm). The amount of NGF was calculated based on a standard curve and expressed in terms of relative multiplicity in relation to the amount of NGF (control) produced and secreted by cells treated in the same manner without adding the test compound. […]

BDNF [2] = assay: BDNF production/secretion promoting activity in cultured Schwann cells (enzyme immunoassay of culture fluid); format: cell-based, SD rats; settings: 24 hours, concentrations of 10^−4 M to 10^−8 M, result in words
NGF [3] = assay: NGF content in peripheral and brain tissues of STZ diabetic neuropathy model rats; format: in vivo, SD rats
Experimental: (§1) The culture fluid obtained in each run of Reference Example 1A was recovered and assayed for the neurotrophin content therein. NGF was assayed by the enzyme immunoassay method described by Murase et al. in Biochemistry International, vol. 22, p. 807 (1990). Thus, an anti-NGF antibody (100 μg/ml) (antibody obtained by using mouse NGF as the antigen and immunizing New Zealand albino rabbits therewith) was distributed in 10-μl portions in the wells of 96-well round bottom plates and antibody adsorption was allowed to proceed by 2 hours standing at room temperature. After removing the antibody, each well was washed three times with a washing solution. A 10-μl portion of the above recovered culture fluid or standard NGF solution was placed in each well and the plates were allowed to stand at room temperature for 2.5 hours. After three times washings of each well, 20 μl of biotinylated anti-NGF antibody (35 ng/ml) was added thereto, followed by overnight standing at 4° C. […] After washing, 30 μl of 4-methylumbelliferyl-β-D-galactoside (produced by Sigma) (10 μg/μl) was added to the substrate, the reaction was allowed to proceed at room temperature for 4 hours and then terminated by addition of 130 μl of 0.1 M glycine-sodium hydroxide buffer (pH 10.3), and the fluorescent intensity of the 4-methylumbelliferone produced was determined (Ex: 360 nm; Em: 450 nm). The amount of NGF was calculated based on a standard curve and expressed in terms of relative multiplicity in relation to the amount of NGF (control) produced and secreted by cells treated in the same manner without adding the test compound. […]
(§2) A diabetic neuropathy model was made by injecting streptozotocin (STZ) into the tail vein of male 6-week-old SD rats in a dose of 70 mg/kg body weight. […] After 30 minutes of centrifugation at 15,000 rpm, the supernatant was used as the sample and the NGF and BDNF contents were determined in the same manner as in Experimental Example 1.

BDNF [4] = assay: BDNF content in peripheral and brain tissues of STZ diabetic neuropathy model rats; format: in vivo, SD rats
Experimental: as §1, §2

[5] = tested on: diabetic neuropathy model; assay: Motor nerve conduction velocity in STZ diabetic neuropathy model rats; format: in vivo, SD rats; settings: 10 mg/kg body weight/day orally for 4 months
Experimental: A diabetic neuropathy model was made by injecting streptozotocin (STZ) into the tail vein of male 6-week-old SD rats in a dose of 70 mg/kg body weight. After 4 moths of housing, 10 mg/kg body weight/day of compound (5) which was suspended in 0.5% (w/v) methylcellulose was orally administered for 4 months. After administration, the rats were anesthetized with pentobarbital and the body temperature of the rats were kept 37° C. using a hotplate heated and an electric lamp. Then, conduction velocities of motor nerves and sensory nerves were determined using an induction potential test device (Neuropack 2, produced by Nihon Kohden) in the following manner. Needle electrodes were placed at the thigh or the ankle of the rats. Then, the sciatic nerve or the tibial nerve was stimulated at, in principle, 1.6 mA and the action potential was recorded from the plantar muscle. The motor nerve conduction velocity was calculated from the distance and latencies of the two different stimulating sites.

[6] = tested on: diabetic neuropathy model; assay: Sensory nerve conduction velocity in STZ diabetic neuropathy model rats; format: in vivo, SD rats; settings: 10 mg/kg body weight/day orally for 4 months
Experimental: A diabetic neuropathy model was made by injecting streptozotocin (STZ) into the tail vein of male 6-week-old SD rats in a dose of 70 mg/kg body weight. After 4 moths of housing, 10 mg/kg body weight/day of compound (5) which was suspended in 0.5% (w/v) methylcellulose was orally administered for 4 months. After administration, the rats were anesthetized with pentobarbital and the body temperature of the rats were kept 37° C. using a hotplate heated and an electric lamp. Then, conduction velocities of motor nerves and sensory nerves were determined using an induction potential test device (Neuropack 2, produced by Nihon Kohden) in the following manner. Proximal or distal positions of the sural nerve of the rats were stimulated at, in principle, 0.8 mA and the potential was recorded at the plantar skin. The sensory nerve conduction velocity was calculated from the distance and latencies of the two different stimulating sites.

[7] = tested on: diabetic neuropathy model; assay: Hyperalgesia test (pressure-stimulant algesiometer, pain threshold of hind-limb) in STZ diabetic neuropathy model rats; format: in vivo, SD rats; settings: 10 mg/kg body weight/day orally for 1 month
Experimental: A diabetic neuropathy model was made by injecting streptozotocin (STZ) into the tail vein of male 6-week-old SD rats in a dose of 70 mg/kg body weight. After 4 months of housing, 10 mg/kg body weight/day of compound (5) which was suspended in 0.5% (w/v) methylcellulose was orally administered for 1 month. After administration, a hvderalgesia test was conducted using a pressure-stimulant algesiometer (produced by Ugo Basil) to determine the pain threshold of hind-limb.

BDNF [8] = assay: BDNF content in pons of STZ diabetic neuropathy model rats; format: in vivo, SD rats; settings: 10 mg/kg body weight/day orally for 1 month
Experimental: (§3) A diabetic neuropathy model was made by injecting streptozotocin (STZ) into the tail vein of male 6-week-old SD rats in a dose of 70 mg/kg body weight. After 4 weeks, 0.1 to 3 mg/kg body weight of compound (5) was orally administered for 4 weeks, and each tissue was collected. The collected tissue was supplemented with 25 to 40 times of disruption buffer (0.1 M Tris-hydrochloride buffer, pH 7.6, containing 1 M sodium chloride, 2% BSA, 2 mM EDTA, 80 trypsin units/L of aprotinin and 0.02% sodium azide) in terms of the wet tissue weight, which was subjected to sonication. After 30 minutes of centrifugation at 15,000 rpm, the supernatant was used as the sample and the NGF and BDNF contents were determined in the same manner as in Experimental Example 1.
(§4) A diabetic neuropathy model was made by injecting streptozotocin (STZ) into the tail vein of male 6-week-old SD rats in a dose of 70 mg/kg body weight. […]
(§5) While, the pons were collected from brain stem to determine the contents of neurotrophic factors. The BDNF contents were determined in the similar manner as in Experimental Example 2. The NT-3 contents were determined in the similar manner as in Experimental Example 2 except that an anti-NT-3 antibody (Brain Res. 1994, 12, pp. 143-146; Clin Chim Acta 1994, 227, pp. 23-36) was used.

NT-3 = NT-3 content in pons of STZ diabetic neuropathy model rats; format: in vivo, SD rats; settings: 10 mg/kg body weight/day orally for 1 month
Experimental: as §3, §4, §5

[9] = 0.1 to 3 mg/kg body weight orally for 4 weeks, hippocampus, Mean ± SD (n = 8 to 9), *: p < 0.05 vs STZ group
[10] = 0.1 to 3 mg/kg body weight orally for 4 weeks, sciatic nerve, Mean ± SD (n = 8 to 9), *: p < 0.05 vs STZ group
[11] = Mean ± SD (n = 5 to 8), **: p < 0.01 vs STZ group
[12] = pons, Mean ± SD (n = 10), **: p < 0.01 vs STZ group

Cc1ccccc1OCCCc1oc(-n2ccnc2C)nc1-c1ccc(Cl)cc1 [Compound (5), 4-(4-chlorophenyl)-2-(2-methyl-1-imidazolyl)-5-[3-(2-methylphenoxy)propyl]oxazole]
NGF production/secretion promoting activity (NGF [1]): excellent | BDNF production/secretion promoting activity (BDNF [2]): excellent | NGF (pg/g tissue) Hippocampus (NGF [3]; [9]): 738 ± 105* pg/g tissue | NGF (pg/g tissue) Sciatic nerve (NGF [3]; [10]): 495 ± 143* pg/g tissue | NGF production/secretion promoting activity at the sciatic nerve and the hippocampus (NGF [3]; oral, 4 weeks, result in words): excellent | BDNF (ng/g tissue) Hippocampus (BDNF [4]; [9]): 3.5 ± 0.3* ng/g tissue | BDNF (ng/g tissue) Sciatic nerve (BDNF [4]; [10]): 5.0 ± 0.6* ng/g tissue | BDNF production/secretion promoting activity at the sciatic nerve and the hippocampus (BDNF [4]; oral, 4 weeks, result in words): excellent | MNCV (m/s) [5, 11]: 54.9 ± 7.6** m/s | motor nerve conduction velocity, effect versus STZ group ([5]; result in words): recovered | SNCV (m/s) [6, 11]: 41.1 ± 7.9** m/s | sensory nerve conduction velocity, effect versus STZ group ([6]; result in words): recovered | Pain threshold (g) ([7]; hind-limb, Mean ± SD (n = 10), **: p < 0.01 vs STZ group): 109 ± 19** g | hyperalgesia, effect versus STZ group ([7]; result in words): ameliorated | BDNF (pg/g tissue) (BDNF [8]; [12]): 4151 ± 1161** pg/g tissue | amount of BDNF in pons, effect versus STZ group (BDNF [8]; result in words): increased | NT-3 (pg/g tissue) (NT-3; [12]): 352 ± 118** pg/g tissue | amount of NT-3 in pons, effect versus STZ group (NT-3; result in words): increased
